Patent US20150111852A1, “1-Di(sec-butyl)-phosphinoyl-pentane (dapa-2-5) as a topical agent” (priority 2013, published 2015)
Values after ≈ are worked out from the molar mass of the structure shown. Values joined by “and” are separate entries in the source; they are usually repeats but may differ in a detail not shown here. Equal values may be shown once. “Also recorded” adds a separate entry of the source.

Assays:
oropharynx [1] = assay: Sensory effects and cold discomfort of compounds given orally in ODT (general evaluation); assay type: in vivo, human; settings: for distribution of the sensation (throat vs chest): oral ODT
Experimental: The correlation between a chemical's potency at the TRPM8 receptor (measured by the EC50 μM) and potency to evoke sensory events in the oropharynx is complex.
When a test compound is applied to non-keratinizng bodily surfaces (e.g., oropharyngeal surface), it is possible to characterize the resulting sensations.
The sensations are akin to rapid drinking of cold water mixed and equilibrated with ice chips. The intense cold is further accentuated if the drink is acidified, for example, with lemonade. The sensations of dull and intense cold on the surface of the oropharynx can be described as painful, uncomfortable, and aversive. The term “icy cold” is used to describe these adverse intense cold sensations.
Together, these three types of sensations—“icy cold”, coldness in the chest, and systemic coldness—is termed “cold discomfort”. […] The ideal agent must have a circumscribed site of action, and the intensity of the sensation should not cause “icy cold”, coldness in the chest, or systemic chills.

oropharynx [2] = assay: Chili-pepper sauce irritation test; assay type: in vivo, human; design: key: If there was no suppression of the irritant/tickling sensations of the sauce, the value was “0”; if there was some suppression, the value was “+”; if there was complete suppression, then the value was “++.”; settings: ODT, sauce applied 30 min later; 6 to 8 trials per compound
Source text: The “pain” component of inflammation includes irritation, itch, and discomfort and suppression of these endpoints is termed “anti-nociceptive”. To determine if a compound has anti-nociceptive activity, the Inventor has devised a modified capsaicin challenge method to evoke discomfort in the oropharyngx: the chili-pepper sauce irritation test. Chili-pepper sauce placed onto the posterior dorsal surface of the tongue evokes a tickling/irritant sensations in the oropharynx. The sensations associated with the chili pepper sauce are located in the back of the mouth and are clearly recognized and associated with irritation and a desire to clear the throat. In the chili-pepper sauce irritation test, the test compound is delivered using an ODT, as in Study 3, and 30 min later 0.2 to 0.25 mL of the sauce was applied onto the posterior dorsal surface of the tongue (with a syringe or a plastic stick). The chili pepper sauce used here is called Yank Sing® Chili Pepper Sauce (YS Gourmet Productions, Inc., PO Box 26189, San Francisco, Calif. 94126) and is a well-known condiment for use with dim sum (Chinese tea lunch). If there was no suppression of the irritant/tickling sensations of the sauce, the value was “0”; if there was some suppression, the value was “+”; and if there was complete suppression, then the value was “++.” For compounds that gave a ++ score, the irritative signals of the chili-pepper sauce are completely absent, yet the salty taste from the soy sauce of the condiment can still be readily tasted. A “++” result indicated suppression of the irritant effects of chili-pepper sauce. Numerical results are from 6 to 8 trials per compound.

[3] = tested on: 0.1 N HCl-induced swallowing, pharyngolaryngeal region; assay: Acid-induced swallowing movements in the anesthetized rat; assay type: in vivo; settings: for Relative Potency (suppression of swallowing): DAPA-2-5 = 1.0
Source text: A principal endogenous irritant in the linings of the upper aerodigestive tract is hydrochloric acid. Acid stimulations of the mucosa of the pharynx will elicit reflex swallowing. […] In a rat animal model, solutions of organic acids such as acetic acid and citric acid were effective in eliciting swallowing [Kajii et al., Sour taste stimulation facilitates reflex swallowing from the pharynx and larynx in the rat Physiology & Behavior 77: 321-325, 2002]. In the present discovery, the method for measuring sensory responses to acid was adapted for screening agents that might suppress the sensitivity to hydrochloric acid. Agents that suppress the acid challenge may then have utility in relieving the discomfort of heartburn.
Experiments were conducted at the Pavlov Institute of Physiology, St. Petersburg, Russia. Adult male Wistar rats, weighing 200 to 400 g, were obtained from the Roppolovo Vivarium. All rats were anesthetized with sodium pentobarbital/urethane and fixed in the supine position. Body temperature was maintained at 37.0° C. with a heating pad. A midline incision was made in the ventral surface of the neck and the trachea was cannulated. A guide tube (polyethylene, diameter 2.2 mm) was fixed at the midline of the hard palate and an internal infusion tube (polyethylene, diameter 0.9 mm) was then placed flush to the end of soft palate. This procedure allows stimulation of the pharyngolaryngeal region with liquids, with minimum mechanical perturbation. An esophageal tube was placed at the thoracic level to drain solutions after infusion. The infused solution was applied to the pharyngolaryngeal region at a flow rate of 1.5 pUs for 20 sec using an infusion pump, giving a total unit volume of approximately 30 μL. Stimulations were applied at intervals of 2 to 3 min, with intervals allowed for rinsing and cleansing with suction. The solutions infused were distilled water, normal saline, 0.1 N hydrochloric acid, or test compounds dissolved in normal saline. A paired unipolar electrode was inserted into unilateral mylohyoid muscle to record electromyogram (EMG) activity and the signal processed for later analysis. Swallowing movements was identified as the EMG activity and could also be visualized as laryngeal movement. The number of swallows in a fixed interval was used as the endpoint.
The test procedures were similar to those described earlier (see, e.g., Kajii et al., 2002). Also, the drainage of the esophagus was at the thoracic level to avoid mechanical disturbance of the pharynx. The infusion rate of solutions was 1.5 μL/sec for 15 to 18 sec.
The response to 0.1 N HCl infusion (30 μL over an approximately 18 second period) was highly reproducible. On average there were 36±4 swallowing movements within one min (N=7 rats). This response could be elicited in the same rat over a 2 hour period with a rest period or saline infusions at 10 min intervals.
The up-down method of Dixon [Efficient analysis of experimental observations. Ann. Rev. […] The EC50 (N=8) for DAPA-2-5 was estimated to be 0.09 mg/mL.

[4] = biological target: T1, TRPA1 channels (human TRPA1 gene expressed in CHO cells) (Homo sapiens, UniProt O75762); assay: TRPA1 agonist assay; assay type: cell-based; settings: maximum tested concentrations of 100 μM
T1 construct: expressed in transfected cells; host or cells: CHO cells
T1 sequence (O75762 whole entry): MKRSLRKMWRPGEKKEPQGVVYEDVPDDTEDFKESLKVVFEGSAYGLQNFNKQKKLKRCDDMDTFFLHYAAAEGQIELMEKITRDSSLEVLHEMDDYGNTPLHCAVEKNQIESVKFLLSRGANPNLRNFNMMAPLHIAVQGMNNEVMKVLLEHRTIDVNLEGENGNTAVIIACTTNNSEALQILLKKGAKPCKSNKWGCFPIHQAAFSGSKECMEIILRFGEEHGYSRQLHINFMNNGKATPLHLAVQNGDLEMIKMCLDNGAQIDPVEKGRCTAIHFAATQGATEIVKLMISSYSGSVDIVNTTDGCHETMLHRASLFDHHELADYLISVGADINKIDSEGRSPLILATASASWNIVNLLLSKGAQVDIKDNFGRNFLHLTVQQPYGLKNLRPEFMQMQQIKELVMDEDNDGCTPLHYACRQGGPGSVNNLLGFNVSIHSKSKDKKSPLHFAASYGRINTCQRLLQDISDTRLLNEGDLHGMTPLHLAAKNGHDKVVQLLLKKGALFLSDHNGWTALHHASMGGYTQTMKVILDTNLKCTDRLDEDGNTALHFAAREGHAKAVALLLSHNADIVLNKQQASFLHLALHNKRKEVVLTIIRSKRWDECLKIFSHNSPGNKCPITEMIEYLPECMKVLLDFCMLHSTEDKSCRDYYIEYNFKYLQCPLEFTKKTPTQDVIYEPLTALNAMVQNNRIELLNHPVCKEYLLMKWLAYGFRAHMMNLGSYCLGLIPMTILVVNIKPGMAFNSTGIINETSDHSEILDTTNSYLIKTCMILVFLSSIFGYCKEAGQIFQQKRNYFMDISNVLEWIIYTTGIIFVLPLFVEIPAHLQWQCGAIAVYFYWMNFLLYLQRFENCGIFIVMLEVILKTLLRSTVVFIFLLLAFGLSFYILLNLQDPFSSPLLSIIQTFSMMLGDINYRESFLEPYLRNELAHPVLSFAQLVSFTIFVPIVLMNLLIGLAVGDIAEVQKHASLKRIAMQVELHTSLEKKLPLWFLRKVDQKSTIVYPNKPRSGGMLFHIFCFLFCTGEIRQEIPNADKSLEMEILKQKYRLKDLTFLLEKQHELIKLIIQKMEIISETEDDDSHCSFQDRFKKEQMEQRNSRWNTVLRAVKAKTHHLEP
Experimental: To examine the specificity of the test compounds, further studies were conducted on TRPV1 channels (human TRPV1 gene expressed in HEK293 cells) and TRPA1 channels (human TRPA1 gene expressed in CHO cells). The test cells were Chinese Hamster Ovary (CHO) cells or Human Embyronic Kidney (HEK) 293 cells transfected with human TRPV1 or TRPA1 cDNAs.

rat skin = assay: Irritant activity on shaved abdominal rat skin; assay type: in vivo; design: key to Redness after 20 μL applied topically to skin (scale of 0 to +++): the presence of redness (irritation) was graded on a scale of 0 to +++; the presence of redness (irritation) was graded on a scale of 0 to +++; the presence of redness (irritation) was graded on a scale of 0 to +++; the presence of redness (irritation) was graded on a scale of 0 to +++; settings: for Redness after 20 μL applied topically to skin (scale of 0 to +++): pure compound, 1 hour; for skin irritancy in words: undiluted form
Experimental: This hypothesis was tested by applying 20 μL of the pure compound onto the shaved abdominal skin of a pentobarbital-anesthetized rat. The test substance was enclosed in a circle of ˜1 cm diameter with a ring of cream. The test substance was applied with a micropipette, and after 1 hour the area was wiped with a cotton pad and the presence of redness (irritation) was graded on a scale of 0 to +++.

## CCCCCCP(=O)(C(C)C)C(C)C [DAPA-1-6, 1-Di(isopropyl)-phosphinoyl-hexane]
Oropharynx [1]
  distribution of the sensation (throat vs chest): sensations of cold in the chest; also recorded: spreads behind the sternum, into the chest
Oropharynx [2]
  Chili test: ++

## CCCCCCCP(=O)(C(C)C)C(C)C [DAPA-1-7, 1-Di(isopropyl)-phosphinoyl-heptane]
Oropharynx [1]
  distribution of the sensation (throat vs chest): spreads behind the sternum, into the chest
[3]
  Relative Potency (suppression of swallowing): 0.11
Oropharynx [2]
  Chili test: ++

## CCCCCP(=O)(C(C)CC)C(C)CC (stereo not shown) [DAPA-2-5, 1-Di(sec-butyl)-phosphinoyl-pentane]
[4]
  agonist activity on TRPA1 channels: did not exhibit any agonist activity
Oropharynx [1]; dose increased to 8 mg (per tablet)
  sensation at increased dose: burning penetrating quality to the sensation, but it was not aversive; also recorded: did not produce stinging, adverse tastes, or “icy cold” or cold discomfort
Oropharynx [1]; in vivo
  duration of “dynamic cool” in the oropharynx: 5 to 15 min and 10 to 15 min
Oropharynx [1]
  distribution of the sensation (throat vs chest): remained localized to the throat and upper esophagus
Rat skin
  Redness after 20 μL applied topically to skin (scale of 0 to +++): 0
  skin irritancy in words: minimal or no pro-inflammatory actions on the skin
[3]; DAPA-2-5 0.4 mg/mL, 10 min after, 8 min after
  swallows after second acid challenge: 9 swallows per min
[3]; DAPA-2-5 0.4 mg/mL, 15 min after, after saline rinse, 22 min after
  swallows after third acid challenge: 27 swallows/min
[3]; DAPA-2-5 0.4 mg/mL, challenge 5 min later, within 3 min
  swallows after first acid challenge: 3 swallows/min
[3]
  Relative Potency (suppression of swallowing): 1.0
[3]; Rattus norvegicus, up-down method, 50% reduction of swallowing frequency, N=4 to 8, read-out: EC50 ± S.E.M. (mg/mL), suppression of acid-induced swallowing
  EC50: 0.09 mg/mL (≈ 387 µM)
[3]; rat, in vivo
  Comments (duration of inhibition): ~15 min
  Comments (reversibility of inhibition): reversible;
Oropharynx [2]
  Chili test: ++

## CCCCCCP(=O)(C(C)CC)C(C)CC (stereo not shown) [DAPA-2-6, 1-Di(sec-butyl) phosphinoyl-hexane]
[4]
  agonist activity on TRPA1 channels: did not exhibit any agonist activity
Oropharynx [1]
  distribution of the sensation (throat vs chest): sensations of cold in the chest; also recorded: spreads behind the sternum, into the chest
Rat skin
  Redness after 20 μL applied topically to skin (scale of 0 to +++): +
  skin irritancy in words: is a skin irritant
[3]
  Relative Potency (suppression of swallowing): 0.05
[3]; rat, in vivo
  inhibitory activity for swallowing relative to DAPA-2-5: 5%
Oropharynx [2]
  Chili test: ++

## CCCCCCCP(=O)(C(C)CC)C(C)CC (stereo not shown) [DAPA-2-7, 1-Di(sec-butyl) phosphinoyl-heptane]
[4]
  agonist activity on TRPA1 channels: did not exhibit any agonist activity
Oropharynx [1]; higher oral doses (e.g., 5 mg or more)
  systemic sensations of cold: sensations of cold on other body surfaces
Oropharynx [1]
  distribution of the sensation (throat vs chest): sensations of cold in the chest; also recorded: spreads behind the sternum, into the chest
Rat skin
  Redness after 20 μL applied topically to skin (scale of 0 to +++): ++
  skin irritancy in words: is a skin irritant
[3]
  Relative Potency (suppression of swallowing): 0.45
[3]; rat, in vivo
  Comments (duration of inhibition): >~30 min
  Comments (reversibility of inhibition): long-lasting;
Oropharynx [2]
  Chili test: ++

## CCCCCCCCP(=O)(C(C)CC)C(C)CC (stereo not shown) [DAPA-2-8, 1-Di(sec-butyl) phosphinoyl-octane]
[3]
  Relative Potency (suppression of swallowing): 0.16
Oropharynx [2]
  Chili test: +
